Measured values from article PMC11969024, “Development of chemokine network inhibitors using combinatorial saturation mutagenesis” (Communications Biology, 2025).

Columns and labels:
[1] = test system: J:CXCR1 cells; assay: Chemokine dose-response, J:CXCR1 cell migration; format: cell-based, human; details: mean of 7 replicates
Protocol: (§1) Cell lines were confirmed mycoplasma free by monthly testing using a MycoAlert^TM kit (LT07-118, Lonza) following the manufacturer’s instructions. THP1 cells: THP1 cells (ECACC 88081201, a human monocyte leukemia cell line[51]) were obtained from ECACC and were cultured in T175 flasks at 0.3-1 × 10^6 cells/mL in Roswell Park Memorial Institute (RPMI) 1640 medium (R0883, Sigma) with 10% FBS (F9665, Sigma) and 5mM L-glutamine (G7513, Sigma), 37 °C, 5% CO2. J:CXCR1 cells: The J:CXCR1 cell line was cultured in the same manner as THP1 cells at 0.15-1 × 10^6 cells per mL[37]. Activated T-cells: T-cells were isolated, activated and expanded as follows. […] The final pellet was resuspended in 1 mL of MACS buffer per 5 mL of initial blood volume and counted using cell size FSC-H/SSC-H parameters with gate settings previously defined by immunostaining (see below). […]
(§2) Cell counts were determined using an ATTUNE NxT Flow Cytometer with Cytkick autosampler (ThermoFisher), based on cell size parameters FSC-H/SSC-H, with previously defined gate settings. FSC-H/SSC-H gate settings for primary white blood cells from buffy coats were determined using flow cytometry to establish the granulocyte, monocyte and lymphocyte populations (Supplementary Fig. 13). […]

[2] = test system: Lymphocytes; assay: Buffy coat lymphocyte migration induced by disease chemokine pools, inhibition by peptide; format: cell-based, human; details: peptide 10 uM; pool at EC50; compared to HD2SCR
From the text: (§3) To assess the potential of combinatorially mutated peptides as therapeutic agents in inflammatory disease, we explored their efficacy against pools of chemokines known to be produced in diseased tissues. We developed the chemokine pool approach to represent the naturally occurring mix of chemokines present in diseased tissues as chemokines have well-known synergistic interactions that cannot be recapitulated when studied individually[8],[11],[55]–[60]. We chose three diseases, atherosclerotic plaque, rheumatoid arthritis, and type 1 diabetes as exemplars, as there is considerable evidence supporting the role of chemokines in their pathology[2]–[4]. To develop disease-relevant chemokine pools, we identified well-characterised bulk RNA-sequencing datasets from atherosclerotic plaque (GSE198600) and rheumatoid arthritis synovium (GSE198520)[61],[62]. […] We analysed chemokine expression levels (in transcripts per million) from these datasets (Supplementary Fig. 6). For each disease we designed a synthetic chemokine pool such that individual chemokine molar concentrations were at ratios determined by the mean relative expression of chemokines in the RNA-sequencing dataset. […] In these experiments we also assessed the effect of EVA4, the parental CC-chemokine binding evasin from which the HD2 series was derived.

[3] = test system: Monocytes; assay: Buffy coat monocyte migration induced by disease chemokine pools, inhibition by peptide; format: cell-based, human; details: peptide 10 uM; pool at EC50; compared to HD2SCR
From the text: as §3

[4] = test system: THP1 cells; assay: THP1 cell migration (Transwell) induced by individual chemokines, inhibition by peptide; format: cell-based, human
Protocol: as §1, §2

[5] = test system: THP1 cells, activated T-cells (ATC), J:CXCR1 cells; assay: Meta-analysis of individual chemokine-induced cell migration experiments; format: cell-based, human; details: seven CC and three CXC chemokines, Dunnett's test
Protocol: Cell migration assays were performed as follows. THP1 cell migration. Briefly, 300000 cells/well were added to the top chamber of a 5-µm 96-well Transwell insert (3387, Corning) in 50 µL of cell migration media (RPMI-1640 (R0883, Sigma), 0.5% FBS (F9665, Sigma), 4mM L-Glutamine (G7513, Sigma), 0.05% DMSO (D4540, Sigma)). The bottom chamber contained 150 µL of migration media with chemokine and peptide. Cells were migrated at 37 °C in 5% CO2 for 4 h. J:CXCR1 cell migration was performed exactly as above using a 3-µm Transwell insert (3385, Corning). Activated T-cell migration. Briefly, 100000 cells/well were added to the top chamber of a 3-µm Transwell insert (3385, Corning) in 50 µL of migration media (HBSS (14025-092, Life Technologies), 0.1% protease free bovine serum albumin (A7030, Sigma), 0.05% DMSO (D4540, Sigma)). The bottom chamber contained 150 µL of migration media with chemokine and peptide. Cells were migrated at 37 °C in 5% CO2 for 2 h. Buffy coat migration. Briefly, a mixture of all cell types at 100000 cells/well were added to the top chamber of a 3-µm Transwell insert (3385, Corning) in 50 µL of migration media (HBSS (14025-092, Life Technologies), 0.1% protease free bovine serum albumin (A7030, Sigma), 0.05% DMSO (D4540, Sigma). The bottom chamber contained 150 µL of migration media with chemokine and peptide. Cells were migrated at 37 °C in 5% CO2 for 2 h. Analysis of cell migration. The migration plate was shaken at 850 RPM for 10 min, and media from bottom plate transferred to a round-bottomed 96 well plate (353910, Falcon). Cells were counted by flow cytometry as described above. Experiments were performed at chemokine EC80 for individual chemotaxis experiments and at EC50 for the pooled chemokine experiments, with three technical replicates, and at least three biological replicates. Statistical significance of differences between control and test groups was evaluated using a two-sided Dunnett’s test with multiple testing correction. Chemokine EC80 or chemokine pool EC50 values were as determined by performing a chemokine dose-response against the cell type and fitting the dose-response curve with a 3-parameter log-logistic model, where the maximal response is fixed at 100% response. […] IC50 was determined by performing inhibitor dose-response experiments and fitting the dose-response curve with a 3-parameter log-logistic model, fixing the bottom of the curve to zero. […] For summary statistics and comparisons, pEC50, pEC80 and pIC50 were calculated as the negative log10 of EC50, EC80 or IC50 expressed in moles/litre.
Sample size and estimated effect sizes were not formally calculated for cell-based or phage-display experiments and no randomization was performed. […]

[6] = test system: activated CD8+T-cells (ATC); assay: Activated T-cell (ATC) migration induced by individual chemokines, inhibition by peptide; format: cell-based, human; details: peptide 10 uM; chemokines at EC80; Dunnett's test
Protocol: Cell lines were confirmed mycoplasma free by monthly testing using a MycoAlert^TM kit (LT07-118, Lonza) following the manufacturer’s instructions. THP1 cells: THP1 cells (ECACC 88081201, a human monocyte leukemia cell line[51]) were obtained from ECACC and were cultured in T175 flasks at 0.3-1 × 10^6 cells/mL in Roswell Park Memorial Institute (RPMI) 1640 medium (R0883, Sigma) with 10% FBS (F9665, Sigma) and 5mM L-glutamine (G7513, Sigma), 37 °C, 5% CO2. J:CXCR1 cells: The J:CXCR1 cell line was cultured in the same manner as THP1 cells at 0.15-1 × 10^6 cells per mL[37]. Activated T-cells: T-cells were isolated, activated and expanded as follows. Briefly, density gradient centrifugation using Lymphoprep^TM density gradient medium (07801, […] Technologies) and a SepMate^TM isolation tube (85450, […] Technologies) was used to isolate peripheral blood mononuclear cells from human leukocyte cones. Two rounds of purification using a human CD8 + T-cell isolation kit (480011, BioLegend) were used to isolate CD8 + T-cells from peripheral blood mononuclear cells. Activation of CD8 + T-cells was performed in ImmunoCult^TM-XF T-cell expansion medium (10982, […] Technologies) with an anti-CD3/anti-CD28 T-cell activator at 25 μl/ml (10991, […] Technologies), supplemented with 10 ng/ml recombinant human IL-2 (200-02, PeproTech) with 1% penicillin/streptomycin. T-cells were passaged every 2–3 days in TexMACS medium (130-097-196, Miltenyi Biotec), supplemented with 10 ng/ml human IL-2 (200-05-250, Peprotech) and incubated at 37 °C in 5% CO2. CD8 + T-cells were frozen at day 10-13 after initial activation, at 20×10^6 cell/ml in TexMACS medium supplemented with 10% DMSO (D2650, Sigma) in liquid nitrogen. Activated CD8^+ T-cells were recovered in TexMACs medium at 0.3 × 10^6 cell/ml and incubated at 37 °C in 5% CO2, 24 h prior to use. For buffy coat experiments a mixture of primary human monocytes, granulocytes and lymphocytes was isolated from human buffy coat. Briefly, RBCs were sedimented in HetaSep (07806, […] Technologies) with 1 mL of HetaSep per 5 mL of blood for 15 min at 37 °C. The buffy coat layer was collected from the top and washed in 50 ml MACS buffer (PBS (P4417, Sigma), 0.5% BSA (A7030, Sigma), 0.075% EDTA (E5134, Sigma), pH 7.2), by centrifugation at 2000 g for 10 min at room temperature. The pellet was resuspended in 10 mL of 1x RBC lysis solution (130-094-183, Miltenyi Biotec) and lysed for 10 min at room temperature. The cells were then washed in MACS buffer twice as above. The final pellet was resuspended in 1 mL of MACS buffer per 5 mL of initial blood volume and counted using cell size FSC-H/SSC-H parameters with gate settings previously defined by immunostaining (see below). The leukocytes were then resuspended in assay buffer for cell migration and used within 30 min of isolation.
Cell counts were determined using an ATTUNE NxT Flow Cytometer with Cytkick autosampler (ThermoFisher), based on cell size parameters FSC-H/SSC-H, with previously defined gate settings. FSC-H/SSC-H gate settings for primary white blood cells from buffy coats were determined using flow cytometry to establish the granulocyte, monocyte and lymphocyte populations (Supplementary Fig. 13). Briefly, cells were labelled with anti-CD3 (Miltenyi Biotec, 130-113-135) to identify the T cell population, anti-CD14 (Miltenyi Biotec, 130-110-578) to identify the monocyte population, and with anti-CD16 (Miltenyi Biotec, 130-113-951) to identify the granulocyte population. Negative control cells were labelled with anti-human IgG1 (Miltenyi Biotec, 130-113-434). All antibodies were allophycocyanin (APC) conjugated. 100,000 white blood cells were added to Eppendorf tubes and centrifuged at 300 g for 3 min. The supernatant was discarded, and the cells resuspended in 98 µL of MACS buffer (1× PBS, 2 mM EDTA and 0.5% BSA, sterile filtered). 2 µl of antibody was added to the cells. […]

[7] = test system: J:CXCR1 cells (Jurkat cells stably transfected with CXCR1); assay: J:CXCR1 cell migration induced by CXCL6, inhibition by peptide; format: cell-based, human; details: peptide 10 uM; CXCL6 at EC80; Dunnett's test
Protocol: as §1, with “follows. Briefly, density gradient centrifugation using Lymphoprep^TM density gradient medium (07801, […] Technologies) and a SepMate^TM isolation tube (85450, […] Technologies) was used to isolate peripheral blood mononuclear cells from human leukocyte cones. Two rounds of purification using a human CD8 + T-cell isolation kit (480011, BioLegend) were used to isolate CD8 + T-cells from peripheral blood mononuclear cells. Activation of CD8 + T-cells was performed in ImmunoCult^TM-XF T-cell expansion medium (10982, […] Technologies) with an anti-CD3/anti-CD28 T-cell activator at 25 μl/ml (10991, […] Technologies), supplemented with 10 ng/ml recombinant human IL-2 (200-02, PeproTech) with 1% penicillin/streptomycin.” for “follows.”
as §2

[8] = lyophilised peptide, data provided by the manufacturer, ref GenScript, cited from earlier work

Q: With “CXCL6: human chemokine, Peprotech 300-41” as the substance, how does the “Mean pEC50” value [1] read?
A: The value was 7.71 [M].

Q: What about the “Mean pEC80” value [1] of the same substance?
A: Its value is 7.45 [M].

Q: Which results are given for “DDDDWDAYAPIWCYFT [HD2CM452, combinatorially mutated HD2 peptide, CM-maxCC group]”?
A: inhibition of lymphocyte migration, atherosclerosis pool [2]: significant inhibition; inhibition of lymphocyte migration, rheumatoid arthritis pool [2]: significant inhibition

Q: For “DDDDWDDYAPITCYFD [HD2CM539, combinatorially mutated HD2 peptide, CM-max group]”, which “inhibition of monocyte migration, insulitis pool” value [3] is on record?
A: The value was “significant inhibition”.

Q: What does the source list for “DWDDWTAYWDLVCYFD [HD2CM3085, combinatorially mutated HD2 peptide, CM-min group]”?
A: inhibition of CCL8 migration compared to the parental peptide ([4]; peptide 0.1 uM, CCL8 at EC80): significantly worse; inhibition of CCL7 migration compared to the parental peptide ([4]; peptide 5 uM, CCL7 at EC80): no differently

Q: With “EEDDYTAYAPLTCYFC [HD2T16C, HD2 point mutant]” as the substance, how does the “migrated cell count over all chemokines studied, compared to HD2 (meta-analysis)” value [5] read?
A: The value was “significant improvement over HD2”.

Q: What about the “inhibition of CCL19, CCL21, CXCL9, and CXCL11-induced migration of ATCs compared to parental HD2” value [6] of the same substance?
A: Its value is “significant improvement in inhibition”.

Q: And the “inhibition of CXCL6-induced migration of J:CXCR1 cells compared to parental HD2” value [7]?
A: The value was “significant improvement in inhibition”.

Q: What does the source list for “EEDDYTAYWPLTCYFT [HD2A9W, HD2 point mutant]”?
A: Solubility, Water ([8]; C-terminal amide): Insoluble; Solubility, DMSO [8]: Insoluble; Solubility, HCOOH [8]: Soluble; Solubility, PBS [8]: Insoluble; migrated cell count over all chemokines studied, compared to HD2 (meta-analysis) [5]: significant improvement over HD2; inhibition of CCL19, CCL21, CXCL9, and CXCL11-induced migration of ATCs compared to parental HD2 [6]: significant improvement in inhibition; inhibition of CXCL6-induced migration of J:CXCR1 cells compared to parental HD2 [7]: significant improvement in inhibition
